Experimental data from PubChem BioAssay AID179 (DTP/NCI, 2004).
Calls of active or inactive are those of the source.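 How the source made its calls: active means compounds giving half or more protection of infected cells from virus-caused growth loss, again on retest; inactive means the rest.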

Test system: CEM cells HIV-1 protection, formazan growth assay
Assay: NCI AIDS Antiviral Assay
Settings: for IC50: measured here: growth of uninfected CEM cells
Procedure, shortened: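 Soluble formazan readout of cell growth; CEM cells ± HIV-1; 5 drug concs. ≥50% protection → retest; ≥50% again = moderately active; reproducible 100% = confirmed active.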

N/N=C(/C(=O)Nc1cccc(Cl)c1)C(C(=O)c1ccc(O)cc1O)C1OC(=O)c2ccccc21 (centres undefined)
EC50: > 525 µM | IC50: 87.1 µM

CCc1nc2ccccn2n1
EC50: > 200 µM | IC50: > 200 µM

CC(C)COC(=O)Sc1ccccc1C(=O)NC(C)C(N)=O (centres undefined)
EC50: 1.1 µM | IC50: 115 µM

Clc1ccc2nc3c(c(-c4ccccc4)nn3-c3ccccc3)c(-c3ccccc3)c2c1
EC50: > 100 µM | IC50: > 100 µM

Clc1ccc(OCc2nnc3n2N=C(c2ccc(Br)cc2)CS3)cc1
outcome: inactive

CC(=O)OC[C@]1(C)CCCC2(C)C1CCC1C=C(C)[C@H]3CCC12C3 (some centres undefined)
EC50: > 107 µM | IC50: > 107 µM

COc1ccc(C2=NNC(=O)C2(C)Br)cc1 (centres undefined)
EC50: > 200 µM | IC50: 42.7 µM

O=C(/C=C/c1ccc(OCC(=O)N2CCN(c3ccccc3)CC2)cc1)c1ccccc1
EC50: > 23.4 µM | IC50: > 23.4 µM

O=C1c2ccccc2-c2c1c1ccccc1c(=O)n2Cc1ccccc1
EC50: > 29.5 µM | IC50: > 29.5 µM

COc1cc(N=Nc2ccc(N=Nc3cc(NC(C)=O)c(N=Nc4ccc(S(=O)(=O)O)cc4)cc3S(=O)(=O)O)c(C)c2)c(C)cc1NC(=O)c1ccc(N)cc1
EC50: 3.55 µM | IC50: 102 µM

Nc1ccc(N=Nc2ccccc2)c(N)n1
EC50: > 200 µM | IC50: 32.4 µM

Cc1ccc(S(=O)(=O)OC2C3OC(C)(C)OC3OC2C2CSC(=S=O)S2)cc1 (centres undefined)
EC50: > 67.6 µM | IC50: > 67.6 µM

N#CC(=C1CCN(CCCC(=O)c2ccc(F)cc2)CC1)c1ccccc1
EC50: > 200 µM | IC50: > 200 µM

Cc1ccc(/C=c2\c(=O)[nH]c3nc4ccccc4c(=O)n23)cc1
EC50: > 200 µM | IC50: 22.4 µM

O=C(NCc1ccccc1)c1c(O)c2ccccc2[nH]c1=O
EC50: > 200 µM | IC50: > 200 µM

N#Cc1nc(-c2cccnc2)oc1N
EC50: > 200 µM | IC50: > 200 µM

O=C(NC(CO)Cc1ccc(Oc2cc(CC(CO)NC(=O)OCc3ccccc3)ccc2OC(=O)OCc2ccccc2)cc1)OCc1ccccc1 (centres undefined)
EC50: > 200 µM | IC50: 20.9 µM

CS(=O)(=O)c1nc2ccc(N3C(=O)c4ccccc4C3=O)cc2s1
outcome: inactive

c1ccc(P(OCCCCOP(c2ccccc2)c2ccccc2)c2ccccc2)cc1
EC50: > 200 µM | IC50: 85.1 µM

CC(CSC(=N)N)C(N)=O (centres undefined)
EC50: > 200 µM | IC50: > 200 µM

CCc1cccc(CC)c1NC(=O)C(=O)Cc1nc2ccccc2o1
EC50: > 537 µM | IC50: > 537 µM

Cc1ccc(-c2n[nH]c(=O)n2/N=C\c2ccccc2O)cc1
EC50: > 200 µM | IC50: > 200 µM

C[C@H]1c2cccc(O)c2C(O)=C2C(=O)[C@]3(O)C(O)=C(C(N)=O)C(=O)[C@@H](N(C)C)[C@@H]3[C@@H](O)[C@@H]21
EC50: > 186 µM | IC50: 8.32 µM

O=C(CC1(O)C(=O)Nc2c(Cl)ccc(Cl)c21)c1ccco1 (centres undefined)
EC50: > 398 µM | IC50: 77.6 µM

COC(=O)c1ccccc1SSCCN
EC50: > 200 µM | IC50: 19.1 µM

CN(C)c1cc(CNCCc2cnc[nH]2)nc(CNCCc2cnc[nH]2)c1
EC50: > 200 µM | IC50: 12.3 µM

Fc1c(F)c(-c2c(F)c(F)c(S)c(F)c2F)c(F)c(F)c1S
outcome: inactive

CCCCCCCCCCCC(O)=C1C(=O)CC(O)CC1=O (centres undefined)
EC50: > 17 µM | IC50: > 17 µM

O=[N+]([O-])c1cc([As](=O)(O)O)ccc1F
EC50: > 200 µM | IC50: > 200 µM

Cc1ccccc1S(=O)(=O)Nn1cnc2ccc(S(=O)(=O)Nc3ccc(Cl)cc3)cc2c1=O
outcome: inactive

CCOC(=O)COc1ccc(OCC(=O)OCC)c2c1C(=O)CCCC2=O
outcome: inactive

O=C1/C(=C/c2cccc(Br)c2)Cc2ccccc21
EC50: > 200 µM | IC50: 17 µM

CC(=O)c1cccc(C(C)=O)c1N=Cc1ccccc1
outcome: inactive

COc1ccc(C(C)NNC(=O)c2ccncc2)cc1OC (centres undefined)
EC50: > 200 µM | IC50: 30.2 µM

Nc1ncnc2c1ncn2CC1OC(CO)C(CO)O1 (centres undefined)
EC50: > 891 µM | IC50: > 891 µM

CCCCCC=C(c1cc(Cl)c(OC)c(C(=O)OC)c1)c1cc(Cl)c(OC)c(C(=O)OC)c1
EC50: 17.8 µM | IC50: 28.8 µM

O=C1NC(=S)NNC12c1ccccc1-c1ccccc12
EC50: > 200 µM | IC50: 33.9 µM

Cc1nc(N)c(N2CCNCC2)c(=O)[nH]1
EC50: > 200 µM | IC50: > 200 µM

Clc1cc2nsnc2c(Cl)n1
EC50: > 457 µM | IC50: 2.75 µM

O=C1OC(=O)c2c1c(-c1ccccc1)cn2-c1ccc(Cl)cc1
outcome: inactive

COc1c[c]([Hg][O]C(C)=O)c(OC)c(NC(=O)CC(C)=O)[c]1[Hg][O]C(C)=O
EC50: > 0.724 µM | IC50: > 0.724 µM

Cc1cc(N(CCC#N)CCC#N)ccc1/C=C1N=C(/C=C/c2ccccc2)N(c2ccc(S(N)(=O)=O)cc2)C\1=O
outcome: inactive

C/C=C1\CN(C)C[C@H]2Cc3c(n(OC)c4ccccc34)C(=O)C[C@@H]12
EC50: > 24 µM | IC50: > 24 µM

CCC[CH2][Sn]([CH2]CCC)([O]C(=O)c1nccnc1N)[O]C(=O)c1nccnc1N
EC50: > 51.3 µM | IC50: 0.288 µM

Cc1ccccc1C(C#N)/C(=N/NC(N)=S)C(=O)Nc1c(C)cccc1C (centres undefined)
EC50: > 245 µM | IC50: 224 µM

COc1nc(N)c2c3c([nH]c2c1C#N)C(C)(C)c1ccccc1N3C
EC50: > 30.2 µM | IC50: 29.5 µM

CC(=O)O[C@H]1CCCC[C@H]1c1ccccc1
EC50: > 309 µM | IC50: > 309 µM

CCC(=O)NCC1(c2c[nH]c3ccccc23)SCCS1
outcome: inactive

Cc1cc(=O)c2c(o1)-c1ccccc1C(c1ccccc1)c1ccccc1-2 (centres undefined)
EC50: 1.51 µM | IC50: 25.1 µM

COP(=O)(OC)C(=O)N1N(c2ccc([N+](=O)[O-])cc2)C(=O)C(C)NC1(NNc1ccc([N+](=O)[O-])cc1)P(=O)(OC)OC (centres undefined)
EC50: > 107 µM | IC50: 56.2 µM

CS(=O)(=O)NNS(=O)(=O)c1ccc(Cl)cc1
EC50: > 126 µM | IC50: > 126 µM

CC(C)(C)c1cc(-c2ccc(-c3cc(C(C)(C)C)c(O)c(C(C)(C)C)c3)cc2)cc(C(C)(C)C)c1O
EC50: > 100 µM | IC50: > 100 µM

O=C(O)C(CSSCC(NC(=O)C(F)(F)F)C(=O)O)NC(=O)C(F)(F)F (centres undefined)
EC50: > 200 µM | IC50: > 200 µM

CCOC(=O)Cc1nc2cc(F)c(F)cc2[nH]c1=O
EC50: > 200 µM | IC50: > 200 µM

CCCCCC(C)SC1(C(=O)OC)CC(OC(C)=O)C(NC(C)=O)C([C@H](OC(C)=O)[C@@H](COC(C)=O)OC(C)=O)O1 (some centres undefined)
EC50: > 200 µM | IC50: 63.1 µM

O=C(COc1ccc(OCC(=O)N2C(=O)CC(=O)N(c3ccc(Cl)cc3)C2=S)cc1)N1C(=O)CC(=O)N(c2ccc(Cl)cc2)C1=S
EC50: > 200 µM | IC50: 42.7 µM

N/N=C(\c1nc2ccc(Cl)cc2[nH]c1=O)C(O)c1ccc(Cl)c(Cl)c1 (centres undefined)
EC50: > 245 µM | IC50: 20.4 µM

CCOC(=O)c1nc2cc(C(F)(F)F)ccc2nc1Nc1cc(OC)c(OC)c(OC)c1
outcome: inactive

N#CC1CC(c2ccccc2)Nc2cc(Cl)ccc2N1 (centres undefined)
EC50: > 47.9 µM | IC50: 6.92 µM

N#CC1N(C(=O)c2ccc(F)cc2)c2ccccc2N1C(=O)c1ccc(F)cc1
EC50: > 200 µM | IC50: 74.1 µM

C=C(C)[C@@H]1CC[C@]2(COC(=O)CC(C)(CC)CC(=O)O)CC[C@]3(C)[C@H](CC[C@@H]4[C@@]5(C)CC[C@H](OC(=O)CC(C)(CC)CC(=O)O)C(C)(C)[C@@H]5CC[C@]43C)[C@@H]12 (some centres undefined)
EC50: > 200 µM | IC50: 9.55 µM

COc1cc2c(cc1OC)C(=O)N1CCCC1CS2 (centres undefined)
EC50: > 200 µM | IC50: > 200 µM

FC(F)(Sc1ncccn1)c1nc(-c2ccccc2)no1
EC50: > 200 µM | IC50: 53.7 µM

CCOC(C)C(/C=N/NC(N)=S)=NNC(N)=S (centres undefined)
EC50: > 20 µM | IC50: 1.86 µM

COc1ccc2[nH]cc(CN3CCC(CO)(c4ccccc4)CC3)c2c1
EC50: > 200 µM | IC50: 91.2 µM

Oc1cc2cccc[n+]2c2cccc(Cl)c12
EC50: > 200 µM | IC50: 34.7 µM

O=C1NC(Cc2ccc(O)cc2)C(=O)NC1Cc1ccc(O)cc1 (centres undefined)
EC50: > 100 µM | IC50: > 100 µM

O=[N+]([O-])c1ccc(C=Cc2ccccc2)cc1.[C-]#[O+].[C-]#[O+].[C-]#[O+].[Cr]
outcome: inactive

c1ccc2nc3c(nc2c1)[nH]c1ccccc13
EC50: > 12.3 µM | IC50: > 12.3 µM

CCCCCCCCCCNC1CC(OC2CC(O)(C(O)CO)Cc3c(O)c4c(c(O)c32)C(=O)c2c(OC)cccc2C4=O)OC(C)C1O (centres undefined)
outcome: inactive

CC1CCc2c(sc3ncnc(N/N=C/c4ccc(Cl)c(Cl)c4)c23)C1 (centres undefined)
EC50: > 25.7 µM | IC50: > 25.7 µM

CC(=O)O[C@]1(C)OC(=O)[C@@H](CC(C)C)N1[N+](=O)[O-]
outcome: inactive

CCc1n[nH]c(=O)n1/N=C/c1ccccc1Cl
EC50: > 200 µM | IC50: > 200 µM

C1CCC(CC2CCC(NC3=NCCO3)CC2)CC1 (centres undefined)
EC50: > 200 µM | IC50: 31.6 µM

COCN1C(=O)[C@@H]2CCCN2C(=O)c2cc(Cl)ccc21
EC50: > 200 µM | IC50: > 200 µM

Cc1c(C(c2[nH]c3ccccc3c2C)c2[nH]c3ccccc3c2C)[nH]c2ccccc12
EC50: 0.0631 µM | IC50: 13.5 µM

O=C(O)C(O)C(O)C(O)C(O)C(O)C(O)CO (centres undefined)
outcome: inactive

CC1(C)OC(=O)C=C[C@@]2(C)C1CC(=O)C1(C)C2CCC2(C)C(c3ccoc3)OC(=O)[C@H]3O[C@]321 (some centres undefined)
EC50: > 200 µM | IC50: > 200 µM

N#CC1=C(N)N(c2ccccc2)C(=S)N2CCCCCCCC12 (centres undefined)
EC50: > 200 µM | IC50: 186 µM

C=C(Br)C[N+]12CN3CN(CN(C3)C1)C2
EC50: > 200 µM | IC50: 55 µM

COC(=O)NN(C(=O)OC)c1c(-c2ccccc2)nc(SC)n1N
EC50: > 200 µM | IC50: > 200 µM

O=C(c1nc2ccc([N+](=O)[O-])cc2[nH]c1=O)C(O)c1ccc2c(c1)OCO2 (centres undefined)
EC50: > 676 µM | IC50: 245 µM

CCCCN1C(=O)[C@](O)(NC(C)=O)[C@H]1COC(C)(C)C
EC50: > 43.7 µM | IC50: > 43.7 µM

CC(C)(C)C#COC(=O)c1ccccc1
EC50: > 251 µM | IC50: > 251 µM

C=CS(=O)(=O)CCN1CC1
EC50: > 200 µM | IC50: > 200 µM

CC1C2=CC=C(O2)C(C)(C)C2=CC=C(O2)C(C)(C)C2=CC=C(O2)C(C)(C)C2=CC=C1O2
outcome: inactive

O=C1NC(c2cccc(Cl)c2)N2C(=O)NC(c3cccc(Cl)c3)N12 (centres undefined)
outcome: inactive

Cc1cc(Br)ccc1N=NC1C(=O)ON=C1c1ccccc1 (centres undefined)
outcome: inactive
